The values below come from patent publication US7897401B2, “Control of apoptosis by controlling the propensity of ceramide channel formation” (University of Maryland, College Park, priority 2005, dated 2011).

The conditions of data set [1]: published value; cited from earlier work.
In data set [2] the test system is ceramide channels in liposomes. Nature of the data set: Liposome carboxyfluorescein release (ceramide channel formation in liposomes). The class given is biochemical. To be noted: C16-ceramide 80 μg, liposomes 90 μg lipid. The procedure: The polar extract of soybean phospholipids (Avanti Polar Lipids, Alabaster, Ala.) and cholesterol (Sigma Chemical, St. Louis, Mo.) were mixed in a 93:7 molar ratio in chloroform and dried under nitrogen followed by drying in vacuo overnight. This mixture resembles the lipid content of mammalian mitochondrial outer membranes. Five mg of this mixture were dispersed in 1 mL of 39 mM NaCl, 6 mM DPX (Molecular Probes, Eugene, Oreg.), 1.5 mM carboxyfluorescein (Acros Organics, Geel, Belgium) and subjected to four freeze-thaw/sonication cycles. After extrusion through a 0.2 μm filter (Avanti Polar Lipids) for 13 passes it was run through a gel filtration column equilibrated and eluted with 50 mM NaCl, 10 mM HEPES, 1 mM EDTA, pH 7.0. The liposomes were used within 30 h. Twenty-five microliters of liposomes were dispersed into 2.0 mL of the elution buffer and placed into a quartz fluorescence cuvette. The fluorescence was monitored using a Deltascan Spectrofluorometer (Photon Technology Instruments, West Sussex, UK) using excitation at 495 nm and emission at 520 nm. Forty microliters of C16-ceramide (2 mg/mL of isopropanol) were added while stirring. Sphingosine was added from either a 1 mg/mL or a 0.1 mg/mL solution in DMSO.

A short description of data set [3]: Protein (cytochrome c) release and metabolism of sphingosine in isolated mitochondria. Particulars: compound alone, maximum. The class given is biochemical.
The nature of data set [4]: Ability of sphingolipids to form channels in membranes. The class given is biochemical. An excerpt:
The present invention establishes that sphingosine is capable of directly disassembling ceramide channels, thus proving the existence of this novel anti-apoptotic regulatory step. The ability of sphingosine, sphingosine-1-phosphate ([…]) and ceramide-1-phosphate the ability to form channels was investigated.

Data set [5] relates to ceramide channel in planar phospholipid membrane. Kind of data set: Electrophysiological recordings on planar phospholipid membranes. It is filed as biochemical. The text has this: Planar phospholipid membranes were produced by the monolayer method (Montal, M. et al. (1972) “FORMATION OF BIMOLECULAR MEMBRANES FROM LIPID MONOLAYERs AND A STUDY OF THEIR ELECTRICAL PROPERTIES,” Proc. Natl. Acad. Sci. USA 69:3561-3566) as modified by Colombini, M. (1987) (“CHARACTERIZATION OF CHANNELS ISOLATED FROM PLANT MITOCHONDRIA,” Methods Enzymol. 148:465-475), across a 100-μm-diameter hole in a Saran partition. Monolayers were produced using a solution of 0.5% w/v asolectin, 0.5% w/v DiPhyPC, 0.1% w/v cholesterol in hexane. This technique produces solvent-free phospholipid membranes whose lipid composition (focusing on the polar head-groups) is similar to that found in the mitochondrial outer membrane. It differs from the natural membrane in lacking proteins.
The aqueous solutions contained 1 mM MgCl2, and 5 mM Pipes pH 6.8 with KCl varying from 0.10 M to 1.0 M. The KCl concentration on one side of the membrane, referred to as the “trans” side, was always 0.10 M, whereas the other side (the “cis” side) was adjusted as needed. The transmembrane voltage was electronically clamped and the current through the membrane was recorded. The voltage values indicated are the voltage differences across the membrane cis side minus trans side.
C2-ceramide was stirred into the aqueous solution on each side of the membrane from a solution in DMSO, generally 0.5 mg/ml. Single or multiple additions, typically […] each, yielding a final concentration of 2 μg/ml, were made to achieve a desired level of conductance. Sphingosine additions of 5 μl were made from a solution in DMSO (4 mg/mL) yielding a final concentration of 4 μg/mL.
The observation that anti-apoptotic Bcl-2 family proteins inhibit ceramide channel formation in isolated yeast and rat liver mitochondria correlates with previous reports showing inhibition of ceramide-induced apoptosis in whole cells by these proteins. Thus the results directly tie ceramide-induced mitochondrial-mediated apoptosis with the Bcl-2 family of proteins known to regulate these events. To address whether the antiapoptotic proteins act directly on ceramide channels or work by an indirect action, their affects on ceramide channels in solvent-free planar phospholipid membranes was tested. This is a defined system free of other proteins. When C16-ceramide is added to the aqueous solution bathing one side of a planar phospholipid membrane, it results in discontinuous increases in conductance under voltage-clamp conditions, the defining characteristic of channel formation in membranes. These conductance increments are the enlargement of one ceramide channel rather than the formation of multiple ceramide channels in parallel (Siskind, L. J. et al. (2003) “ENLARGEMENT AND CONTRACTURE OF C2-CERAMIDE CHANNELS,” Biophys. J. 85:1560-1575). […]

Each structure is given as a SMILES string.

With `CCCCCCCCCCCCC/C=C/[C@@H](O)[C@@H](N)CO` [sphingosine], the CMC entry in data set [1] is “more than 30 μg/mL”. For the same compound, in data set [2], the “effect of pretreatment on C16-ceramide-induced carboxyfluorescein release from liposomes” value is “biphasic enhancement”. Moreover, the “release of cytochrome c from isolated mitochondria” value in data set [3] was no more than 15%. Further, in data set [4], the “ability to form channels” value was “produced real channels”. Besides, the “time at which conductance reached a minimum” value in data set [5] (C2-ceramide 3 μg/mL, sphingosine 8 μg/mL at t=0, KCl gradient) stood at 20 min. Also, the “time over which membrane conductance decreased after addition” value in data set [5] (C2-ceramide channel (9 μg/mL), sphingosine 4 μg/mL cis side, 10 mV) is 15 to 20 min. In data set [5] (C2-ceramide channel, sphingosine 4 μg/mL, conductance reached level of unmodified membrane), the “effect on formed ceramide channel” value is recorded as “completely disassembled”.
